According to patent US5434186A, “Carboxylic acid leukotriene B4 antagonists” (Hoffmann-La Roche Inc., priority 1993, dated 1995):
Read-outs that look alike come from different tables or passages of the source.

What was measured:
[1] = target: T1, LTB4 Receptor (Homo sapiens, UniProt Q15722); assay: LTB4 Receptor Binding Assay (inhibition of 3H-LTB4 binding, human neutrophils); details: 0.5 nM 3H-LTB4, 45 minutes on ice, isolated human neutrophils
T1 construct: Isolated human neutrophils in Gey's salt solution; endogenous in cells; host or cells: human neutrophils isolated from blood (90-95% neutrophils)
Method: Binding assays can be performed in microtiter wells. Isolated human neutrophils in Gey's salt solution are incubated on ice for 45 minutes with 0.5 nM ^3 H-LTB4 in the presence or absence of test compounds. Assays are terminated by adding 12 ml ice cold 50 mM Tris (pH 7.4) followed by rapid filtration under vacuum through GF/C filters. Radioactivity is determined by scintillation counting. Non specific binding is defined as the binding not displaced by 100 fold excess of unlabelled LTB4. Specific binding is defined as the difference between total binding and non-specific binding. Non linear analysis of the binding data is performed using LIGAND (Munson and Rodbard, 1980). Ki (Inhibition Constant) values were determined using the Cheng-Prusoff relationship (Cheng and Prusoff, 1973).
(§1) Human neutrophils are prepared from citrated or heparinized blood. The blood was diluted 1:1 with Hank's balanced salt solution (HBSS) minus calcium and magnesium and underlayed with 10 ml lymphocyte separation medium (Organon Teknika), followed by centrifugation at 500× g for 30 min., at room temperature. Supernatants are removed down to the red blood cell pellet. HBSS minus calcium and magnesium are added to give 25 ml. To this are added 25 ml 6% dextran in 0.85% NaCl. Samples are mixed and allowed to stand 20 min at room temperature. Supernatants are removed and centrifuged at 500× g for 5 min at 4° C. Pellets are resuspended with 20 ml 0.2% saline for 20 sec followed by the addition of 20 ml 1.6% saline. Samples are centrifuged at 500× g for 5 min at 4° C. The lysis is repeated and the cells (90-95% neutrophils) are resuspended at 2× 10^6 cell/ml in GEY's salt solution.

[2] = tested on: LTB4 -induced bronchoconstriction; assay: Guinea Pig Bronchoconstriction In Vivo (LTB4-induced); design: species or system guinea pig (Hartley strain); details: Cavia porcellus, iv, i.v. five minutes prior to LTB4 (1 μg/kg i.v.), read-out: ID50 (mg/kg), i.v., LTB4-induced bronchoconstriction
Method: Male guinea pigs (Hartley strain) weighing 300 to 500 g are anesthetized with urethane (2 g/kg) intraperitoneally and a polyethylene cannula is inserted into the jugular vein for drug administration. Tracheal pressure is recorded from a cannula inserted into the trachea and connected to a Gould P23ID pressure transducer. After surgical preparation of the animals, a period of time is allowed for pulmonary functions to stabilize. The test compound is administered intravenously five minutes prior to leukotriene B4 administration according to the following protocol: Animals are paralyzed with succinylcholine (1.2 mg/kg i.v.) and mechanically respirated (Harvard rodent respirator) at 40 breaths/minute and 2.5 cc tidal volume. Propranolol (0.1 mg/kg) is then administered intravenously one minute prior to leukotriene B4 administration. Animals are then challenged with an intermediate constrictory dose of leukotriene B4 (1 μg/kg) delivered intravenously.
The change (cm H2 O) between pre and peak ventilatory pressure readings is averaged for five control and five drug treated animals. The percent inhibition is calculated from the formula:
((Control-Drug Treated)/Control)×100
When representative compounds of formula I of the invention were utilized as the test compounds the following results were obtained: […]

[3] = tested on: LTB4 -induced bronchoconstriction; assay: as above; design: species or system guinea pig (Hartley strain); details: Cavia porcellus, po, read-out: ID50 (mg/kg), p.o., LTB4-induced bronchoconstriction
[4] = tested on: LTB4 mediated calcium fluxes in human neutrophils; assay: Calcium Flux Assay (inhibition of LTB4 mediated calcium fluxes in human neutrophils); type: cell-based; details: Neutrophil; Fura2 labelled human neutrophils, 2.4 nM LTB4
Method: as §1
LTB4 induced changes in intracellular calcium concentration are measured using Fura2 labelled human neutrophils. Cells at a concentration of 2-5×10^6 /ml are labelled with 5 μM Fura2 for 30 minutes in Hank's balanced salt solution without calcium and magnesium. The cells are washed and resuspended at a final concentration of 1-2×10^7 cells/ml in Gey's solution. Calcium fluxes are initiated by the addition of 2.4 nM LTB4. Test compounds at appropriate concentrations are added to the cells just prior to the addition of LTB4. […] Fluorescence measurements are made in a Perkin Elmer model LS-5B spectrofluorimeter at a temperature setting of 37° C. Calcium concentrations are determined using the ratio method (ratio of cell fluorescence to media fluorescence).
When representative compounds of formula I of the invention were tested, the results set forth in Table H and expressed as inhibition of LTB4 mediated calcium fluxes in human neutrophils, were obtained.

T1 sequence (Q15722 whole entry): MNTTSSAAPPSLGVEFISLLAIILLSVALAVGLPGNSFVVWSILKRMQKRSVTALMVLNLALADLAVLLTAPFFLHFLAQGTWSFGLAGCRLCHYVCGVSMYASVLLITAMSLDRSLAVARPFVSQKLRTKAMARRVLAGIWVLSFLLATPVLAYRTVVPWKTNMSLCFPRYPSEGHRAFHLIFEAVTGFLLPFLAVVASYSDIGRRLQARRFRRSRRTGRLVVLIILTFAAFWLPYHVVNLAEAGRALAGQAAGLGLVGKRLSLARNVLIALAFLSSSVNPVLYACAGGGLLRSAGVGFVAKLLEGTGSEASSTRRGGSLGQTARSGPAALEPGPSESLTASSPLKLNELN

Ki [1] [nM] | IC50 [4] [nM] | SMILES | ED50 [2] [mg/kg] | ED50 [3] [mg/kg]
150 |  | O=C(O)CCc1ccccc1OCCCCCOc1ccc2c(c1Cc1ccccc1)OCCC2=O [Example 73, 2-[5-[[3,4-Dihydro-4-oxo-8-(phenylmethyl)-2H-1-benzopyran-7-yl]oxy]pentyloxy]benzenepropanoic Acid] | 0.13 | > 10
1 | 3 | CCCc1c(OCCCCCCc2cccc(OCC(=O)O)c2CCC(=O)O)ccc2c1OCCC2=O [Example 152, 2-(Carboxymethoxy)-6-[6-[(3,4-dihydro-4-oxo-8-propyl-2H-1-benzopyran-7-yl)oxy]hexyl]benzenepropanoic Acid] | 2 | 
95 |  | O=C(O)CCc1ccccc1OCCCCCOc1ccc2c(c1CCCc1ccccc1)OCCC2=O [Example 195, 2-[[5-[[3,4-Dihydro-4-oxo-8-(3-phenylpropyl)-2H-1-benzopyran-7-yl]oxy]pentyl]oxy]benzenepropanoic Acid] | 0.04 | 5.8
0.8 |  | CCCc1c(OCCCCCOc2ccc3cc(OCC(=O)O)ccc3c2CCC(=O)O)ccc2c1OCCC2=O [Example 231, 6-(Carboxymethoxy)-2-[[5-[(3,4-dihydro-4-oxo-8-propyl-2H-1-benzopyran-7-yl)oxy]pentyl]oxy]-1-naphthalenepropanoic Acid] | 1.36 | 
3 |  | CCCc1c(OCCCCCOc2ccc(C(=O)c3ccc(C(=O)O)cc3)cc2CCC(=O)O)ccc2c1OCCC2=O [Example 85, 5-[(4-Carboxyphenyl)carbonyl]-2-[5-[(3,4-dihydro-4-oxo-8-propyl-2H-1-benzopyran-7-yl)oxy]pentyloxy]benzenepropanoic Acid] | 6.23 | 
3 | 1 | CCCc1c(OCCCCCCOc2ccc(C(=O)c3cccc(C(=O)O)c3)cc2CCC(=O)O)ccc2c1OCCC2=O [Example 22, 5-[(3-Carboxyphenyl)carbonyl]-2-[6-[(3,4-dihydro-4-oxo-8-propyl-2H-1-benzopyran-7-yl)oxy]hexyloxy]benzenepropanoic Acid] |  | 
2 |  | CCCc1c(OCCCCCOc2ccc3nc(CCC(=O)O)ccc3c2CCC(=O)O)ccc2c1OCCC2=O [Example 238, 6-[[5-[(3,4-Dihydro-4-oxo-8-propyl-2H-1-benzopyran-7-yl)oxy]pentyl]oxy]-2,5-quinolinedipropanoic Acid] | 1.24 | 
1 |  | CCCc1c(OCCCCCOc2ccc3ccc(OCC(=O)O)cc3c2CCC(=O)O)ccc2c1OCCC2=O [Example 226, 7-(Carboxymethoxy)-2-[[5-[(3,4-dihydro-4-oxo-8-propyl-2H-1-benzopyran-7-yl)oxy]pentyl]oxy]-1-naphthalenepropanoic Acid] | 4.4 | 
607 |  | CCCCCc1c(OCCCCCOc2ccccc2CCC(=O)O)ccc2c1OCCC2=O [Example 118, 2-[5-[(3,4-Dihydro-4-oxo-8-pentyl-2H-1-benzopyran-7-yl)oxy]pentyloxy]benzenepropanoic Acid] | 0.18 | > 10
1 |  | O=C(O)CCCCCOc1cccc(CCCCCCOc2ccc3c(c2CCCc2ccccc2)OCCC3=O)c1CCC(=O)O [Example 200, 2-[(5-Carboxypentyl)oxy]-6-[6-[[3,4-dihydro-4-oxo-8-(3-phenylpropyl)-2H-1-benzopyran-7-yl]oxy]hexyl]benzenepropanoic Acid] | 0.06 | 0.16
 | 300 | CCCc1c(OCCCCCOc2cc3c(cc2C(C)=O)CCC(C(=O)O)O3)ccc2c1OCCC2=O (racemic) [Example 11, rac-6-Acetyl-7-[5-[(3,4-dihydro-4-oxo-8-propyl-2H-1-benzopyran-7-yl)oxy]pentyloxy]-3,4-dihydro-2H-1-benzopyran-2-carboxylic Acid] |  | 
70 |  | CCCc1c(OCCCCCOc2ccccc2OCC(=O)O)ccc2c1OCCC2=O [Example 13, [2-[5-[(3,4-Dihydro-4-oxo-8-propyl-2H-1-benzopyran-7-yl)oxy]pentyloxy]phenoxy]acetic Acid] | 1.85 | 
200 |  | CCCc1c(OCCCCCOc2ccccc2CCCCC(=O)O)ccc2c1OCCC2=O [Example 147, 2-[5-[(3,4-Dihydro-4-oxo-8-propyl-2H-1-benzopyran-7-yl)oxy]pentyloxy]benzenepentanoic Acid] | 1.18 | 

The remaining lines, values behind:

SMILES | Ki [1] [nM] | IC50 [4] [nM] | ED50 [2] [mg/kg] | ED50 [3] [mg/kg]
CCCc1c(OCCCCCCc2cccc(OCCCCC(=O)N(C)C)c2CCC(=O)N(C)C)ccc2c1OCCC2=O [Example 196, 2-[6-[(3,4-Dihydro-4-oxo-8-propyl-2H-1-benzopyran-7-yl)oxy]hexyl]-6-[[5-(dimethylamino)-5-oxopentyl]oxy]-N,N-dimethylbenzenepropanamide] | 200 |  | 0.62 | 
CCCc1c(OCCCCCOc2ccccc2CCCC(=O)O)ccc2c1OCCC2=O [Example 145, 2-[5-[(3,4-Dihydro-4-oxo-8-propyl-2H-1-benzopyran-7-yl)oxy]pentyloxy]benzenebutanoic Acid] | 30 |  | 0.56 | > 10
CCCc1c(OCCCCCCc2cccc(OCCCC(C)(C)C(=O)O)c2CCC(=O)O)ccc2c1OCCC2=O [Example 174, 2-[(4-Carboxy-4-methylpentyl)oxy]-6-[6-[(3,4-dihydro-4-oxo-8-propyl-2H-1-benzopyran-7-yl)oxy]hexyl]benzenepropanoic Acid] | 1 |  | 0.22 | 1.1
CCCc1c(OCCCCCOc2ccc(OCCCCC(=O)O)cc2CCC(=O)O)ccc2c1OCCC2=O [Example 58, 5-(4-Carboxybutoxy)-2-[5-[(3,4-dihydro-4-oxo-8-propyl-2H-1-benzopyran-7-yl)oxy]pentyloxy]benzenepropanoic Acid Hemihydrate] | 4 |  | 5.09 | 
CCCc1c(OCCCCCOc2ccc(CCCCC(=O)O)cc2CCC(=O)O)ccc2c1OCCC2=O [Example 215, 3-(2-Carboxyethyl)-4-[[5-[(3,4-dihydro-4-oxo-8-propyl-2H-1-benzopyran-7-yl)oxy]pentyl]oxy]benzenepentanoic Acid] | 3 |  | 0.24 | 4.65
CCCc1c(OCCCCCCc2ccccc2CCC(=O)O)ccc2c1OCCC2=O [Example 37, 2-[6-[(3,4-Dihydro-4-oxo-8-propyl-2H-1-benzopyran-7-yl)oxy]hexyl]benzenepropanoic Acid] |  |  | 0.45 | > 10
CCCc1c(OCCCCOc2ccc(C(=O)c3cccc(C(=O)O)c3)cc2CCC(=O)O)ccc2c1OCCC2=O [Example 24, 5-[(3-Carboxyphenyl)carbonyl]-2-[4-[(3,4-dihydro-4-oxo-8-propyl-2H-1-benzopyran-7-yl)oxy]butoxy]benzenepropanoic Acid] | 15 | 11 |  | 
CCCc1c(OCc2cccc(COc3ccccc3CCC(=O)O)c2)ccc2c1OCCC2=O [Example 39, 2-[3-[[(3,4-Dihydro-4-oxo-8-propyl-2H-1-benzopyran-7-yl)oxy]methyl]phenylmethoxy]benzenepropanoic Acid] | 100 |  | 5.4 | 
CCCc1c(OCCCCCCc2ccc(CCCCC(=O)O)cc2CCC(=O)O)ccc2c1OCCC2=O [Example 219, 3-(2-Carboxyethyl)-4-[6-[(3,4-dihydro-4-oxo-8-propyl-2H-1-benzopyran-7-yl)oxy]hexyl]benzenepentanoic Acid] | 1 |  | 0.08 | > 10
